Results as given in US8748407B2 (The Research Foundation for the State University of New York, priority 2010, dated 2014).

What was measured:
Type in all cases: cell-based
GluA2Qflip = molecular target: T1, GluA2Qflip (Rattus norvegicus, UniProt P19491); experiment: Whole-cell current recording, GluA2Qflip in HEK-293 cells
T1 construct: expressed in transfected cells; host or cells: HEK-293S
Description: (§1) The original cDNAs in pBlueScript encoding rat GluA1, 2 and 3 AMPA receptors and GluK2 kainate receptor were kindly provided by Steve Heinemann. The GluA4 DNA plasmid was kindly provided by Peter Seeburg. The GluK1 plasmid was kindly provided by Geoffrey Swanson. The cDNAs of all three NMDA receptor subunits were gifts from John Woodward. All DNA plasmids were propagated using Escherichia coli host (DH5α) and purified using QIAGEN DNA purification kits.
(§2) All of the receptors were transiently expressed in HEK-293S cell. HEK-293S cells were maintained in Dulbecco's modified Eagle's medium (DMEM) supplemented with 10% fetal bovine serum and 1% penicillin in a 37° C., 5% CO2, humidified incubator. Receptors were transiently transfected by using calcium phosphate or lipofectamine 2000 (Invitrogen). The DNA plasmids encoding green fluorescent protein (GFP) and T-antigen (TAg) were cotransfected in HEK-293 S cells. GFP was used as a transfection marker for cell recording, and TAg was cotransfected to potentiate the receptor expression at the single-cell level^6. Transfected cells were allowed to grow for 48 hour before they were used for recording.
(§3) The procedure for whole-cell current recording to assay the inhibitory property of an RNA aptamer is known to those of skill in the art and has been previously described^7. […] The extracellular buffer composition is described above (see “Receptor Preparation”). For recording of the NMDA channels, the intracellualr solution contained (in mM) 140 CsCl, 1 MgCl2, 0.1 EGTA, and 10 HEPES (pH 7.2 adjusted by […]), while the extracellular solution contained (in mM) 135 NaCl, 5.4 KCl, 1.8 CaCl2, 10 glucose and 5 HEPES (pH 7.2 adjusted by NaOH). In the extracellular buffer, 2 μM of glycine was added (glycine was the co-agonist of NMDA receptor)^2. All reagents including aptamer were dissolved in the corresponding extracellular buffer and used. […] The whole-cell current was recorded using an Axopatch-200B amplifier at a cutoff frequency of 2-20 kHz by a built-in, eight-pole Bessel filter and digitized at 5-50 kHz sampling frequency using a Digidata 1322A from Axon Instruments (Molecular Devices, Sunnyvale, Calif.). The pClamp 8 software (Molecular Devices) was used for data acquisition. All whole-cell recordings were at −60 mV and 22° C.
To deliver AG56 to a HEK-293 cell, a “Ψ”-shaped flow device was used. […] In all experiments reported in this study, a 6-second preincubation flow protocol was used for full aptamer preincubation. […] The corrected current amplitude was used for data analysis.
Determination of KI,app by the ratio of the current amplitude in the absence and presence of inhibitor or A/A(I)—see FIG. 5 in the text. Equ. 10a and 10b were derived based on one inhibitor binding to the receptor. KI, app is the apparent inhibition constant for the inhibitor; other terms have been defined previously.
Under this condition, the inhibition constant for the closed-channel conformation was determined from the ratio of the amplitude according to equ. 10a and 10b. Likewise, at a saturating ligand concentration (i.e., L>>K1), the majority of the receptors were in the open-channel state. Consequently, the inhibition constant associated with the open-channel conformation was measured. The basis of using the two ligand concentrations that corresponded to ˜4% and ˜96% fraction of the open-channel receptor form^7 to determine the corresponding inhibition constant was a putative difference in inhibition constant between the closed-channel and the open-channel conformation. At those low and high ligand concentrations^7, the apparent inhibition constants obtained were considered pertinent to the closed-channel and the open-channel conformations, respectively. Examples of using the current amplitude to determine the inhibition constant for an inhibitor include our previous study of two 2,3-benzodiazepine derivatives with the GluA2Qflip AMPA receptor^15.

GluA4 = molecular target: T2, GluA4 (Rattus norvegicus, UniProt P19493); experiment: Whole-cell current recording, GluA4
T2 construct: expressed in transfected cells; host or cells: HEK-293S
T2 sequence (P19493 21-902): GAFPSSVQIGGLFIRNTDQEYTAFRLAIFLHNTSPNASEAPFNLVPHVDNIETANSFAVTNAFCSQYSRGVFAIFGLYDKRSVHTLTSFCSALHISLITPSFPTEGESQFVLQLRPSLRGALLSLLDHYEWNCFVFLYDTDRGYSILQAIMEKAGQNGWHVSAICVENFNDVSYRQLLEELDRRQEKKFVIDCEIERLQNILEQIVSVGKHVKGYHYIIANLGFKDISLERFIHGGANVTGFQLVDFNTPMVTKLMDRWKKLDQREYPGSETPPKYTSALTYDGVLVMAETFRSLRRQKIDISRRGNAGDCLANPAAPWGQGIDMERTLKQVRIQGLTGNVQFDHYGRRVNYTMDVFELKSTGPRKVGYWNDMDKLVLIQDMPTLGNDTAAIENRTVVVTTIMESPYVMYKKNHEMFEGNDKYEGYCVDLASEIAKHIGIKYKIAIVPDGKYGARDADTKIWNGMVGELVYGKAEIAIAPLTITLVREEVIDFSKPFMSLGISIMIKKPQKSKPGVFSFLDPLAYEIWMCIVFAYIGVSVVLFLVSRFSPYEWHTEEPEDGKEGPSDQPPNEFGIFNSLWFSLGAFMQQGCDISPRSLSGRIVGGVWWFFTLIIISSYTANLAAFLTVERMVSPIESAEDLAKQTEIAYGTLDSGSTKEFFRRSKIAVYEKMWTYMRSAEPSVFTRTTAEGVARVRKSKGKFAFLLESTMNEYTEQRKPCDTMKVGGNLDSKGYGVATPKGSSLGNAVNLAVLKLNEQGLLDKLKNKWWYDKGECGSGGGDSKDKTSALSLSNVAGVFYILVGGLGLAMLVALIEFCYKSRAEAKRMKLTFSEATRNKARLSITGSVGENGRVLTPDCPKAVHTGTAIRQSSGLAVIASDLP
Description: as §1, §2, §3

GluN1a/2A = molecular target: T3, GluN1a/2A (Rattus norvegicus, UniProt P35439+Q00959); experiment: Whole-cell current recording, NMDA receptor GluN1a/2A
T3 construct: expressed in transfected cells; host or cells: HEK-293S
T3 sequence (Q00959 23-1464, other chains not shown): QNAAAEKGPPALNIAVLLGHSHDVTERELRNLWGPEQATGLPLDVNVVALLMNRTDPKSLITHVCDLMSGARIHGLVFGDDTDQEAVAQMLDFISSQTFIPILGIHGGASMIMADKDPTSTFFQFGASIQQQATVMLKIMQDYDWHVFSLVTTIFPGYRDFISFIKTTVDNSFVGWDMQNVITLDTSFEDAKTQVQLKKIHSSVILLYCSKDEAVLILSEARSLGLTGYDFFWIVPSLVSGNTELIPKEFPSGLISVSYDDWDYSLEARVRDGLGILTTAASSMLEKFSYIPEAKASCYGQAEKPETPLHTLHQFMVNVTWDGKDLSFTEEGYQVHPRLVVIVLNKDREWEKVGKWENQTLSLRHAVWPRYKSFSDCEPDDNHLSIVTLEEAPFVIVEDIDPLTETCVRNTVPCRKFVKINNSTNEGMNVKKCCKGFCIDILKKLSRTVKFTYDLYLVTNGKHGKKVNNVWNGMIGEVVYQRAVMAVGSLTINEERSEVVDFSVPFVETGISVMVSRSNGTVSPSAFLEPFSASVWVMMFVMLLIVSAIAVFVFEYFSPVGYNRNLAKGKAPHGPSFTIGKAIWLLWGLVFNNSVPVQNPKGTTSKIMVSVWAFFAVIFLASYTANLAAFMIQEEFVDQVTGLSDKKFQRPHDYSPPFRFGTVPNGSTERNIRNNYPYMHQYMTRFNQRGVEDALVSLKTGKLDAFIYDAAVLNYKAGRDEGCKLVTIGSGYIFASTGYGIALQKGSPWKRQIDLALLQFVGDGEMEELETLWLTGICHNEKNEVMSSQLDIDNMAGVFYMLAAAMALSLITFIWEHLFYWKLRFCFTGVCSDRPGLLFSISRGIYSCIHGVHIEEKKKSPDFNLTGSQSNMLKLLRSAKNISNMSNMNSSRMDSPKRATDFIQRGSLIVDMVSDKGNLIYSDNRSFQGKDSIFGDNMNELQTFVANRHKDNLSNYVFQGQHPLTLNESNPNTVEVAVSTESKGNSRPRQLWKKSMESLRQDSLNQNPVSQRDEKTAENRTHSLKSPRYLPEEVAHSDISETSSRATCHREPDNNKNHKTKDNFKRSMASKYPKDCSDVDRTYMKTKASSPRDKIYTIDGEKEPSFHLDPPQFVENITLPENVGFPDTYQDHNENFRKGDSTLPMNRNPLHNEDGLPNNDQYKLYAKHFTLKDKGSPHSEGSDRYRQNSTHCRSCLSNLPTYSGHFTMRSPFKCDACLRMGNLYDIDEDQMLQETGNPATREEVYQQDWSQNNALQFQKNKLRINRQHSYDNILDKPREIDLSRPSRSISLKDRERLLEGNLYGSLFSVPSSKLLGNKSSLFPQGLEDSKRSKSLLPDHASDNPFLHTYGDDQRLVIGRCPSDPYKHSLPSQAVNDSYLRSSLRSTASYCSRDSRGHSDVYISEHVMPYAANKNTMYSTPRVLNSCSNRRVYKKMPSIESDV
Description: as §1
as §2, with “GFP was used as a transfection marker for cell recording, and TAg was cotransfected to potentiate the receptor expression at the single-cell level^6. Transfected cells were allowed to grow for 48 hour before they were used for recording.” left out
(§4) The procedure for whole-cell current recording to assay the inhibitory property of an RNA aptamer is known to those of skill in the art and has been previously described^7. […] The whole-cell current was recorded using an Axopatch-200B amplifier at a cutoff frequency of 2-20 kHz by a built-in, eight-pole Bessel filter and digitized at 5-50 kHz sampling frequency using a Digidata 1322A from Axon Instruments (Molecular Devices, Sunnyvale, Calif.). […]

GluA3 = molecular target: T4, GluA3 (Rattus norvegicus, UniProt P19492); experiment: Whole-cell current recording, GluA3
T4 construct: expressed in transfected cells; host or cells: HEK-293S
T4 sequence (P19492 23-888): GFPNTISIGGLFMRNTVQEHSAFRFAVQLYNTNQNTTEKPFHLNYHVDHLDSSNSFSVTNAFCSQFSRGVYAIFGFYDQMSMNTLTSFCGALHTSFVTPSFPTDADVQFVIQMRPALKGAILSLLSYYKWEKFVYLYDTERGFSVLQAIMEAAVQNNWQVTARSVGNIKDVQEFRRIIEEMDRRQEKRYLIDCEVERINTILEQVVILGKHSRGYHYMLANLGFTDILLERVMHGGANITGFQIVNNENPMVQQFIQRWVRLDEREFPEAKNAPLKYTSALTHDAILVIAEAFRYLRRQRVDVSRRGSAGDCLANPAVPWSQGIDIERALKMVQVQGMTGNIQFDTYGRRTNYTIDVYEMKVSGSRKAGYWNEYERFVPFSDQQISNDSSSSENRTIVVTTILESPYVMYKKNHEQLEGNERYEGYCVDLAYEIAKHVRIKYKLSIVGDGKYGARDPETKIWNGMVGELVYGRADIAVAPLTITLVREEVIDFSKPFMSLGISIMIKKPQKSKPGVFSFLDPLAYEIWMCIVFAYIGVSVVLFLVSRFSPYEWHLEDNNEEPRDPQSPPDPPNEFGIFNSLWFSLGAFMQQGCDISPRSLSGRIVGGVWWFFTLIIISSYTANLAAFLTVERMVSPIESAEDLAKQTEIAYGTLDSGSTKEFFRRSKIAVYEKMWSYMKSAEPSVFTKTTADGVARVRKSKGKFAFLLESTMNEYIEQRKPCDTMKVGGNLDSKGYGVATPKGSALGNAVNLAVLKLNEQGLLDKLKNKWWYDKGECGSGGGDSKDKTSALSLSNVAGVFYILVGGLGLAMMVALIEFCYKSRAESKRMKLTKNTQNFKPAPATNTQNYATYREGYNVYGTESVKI
Description: as §1
as §2, with “GFP was used as a transfection marker for cell recording, and TAg was cotransfected to potentiate the receptor expression at the single-cell level^6. Transfected cells were allowed to grow for 48 hour before they were used for recording.” left out
as §4

T1 sequence (P19491 22-883 isoform P19491-2): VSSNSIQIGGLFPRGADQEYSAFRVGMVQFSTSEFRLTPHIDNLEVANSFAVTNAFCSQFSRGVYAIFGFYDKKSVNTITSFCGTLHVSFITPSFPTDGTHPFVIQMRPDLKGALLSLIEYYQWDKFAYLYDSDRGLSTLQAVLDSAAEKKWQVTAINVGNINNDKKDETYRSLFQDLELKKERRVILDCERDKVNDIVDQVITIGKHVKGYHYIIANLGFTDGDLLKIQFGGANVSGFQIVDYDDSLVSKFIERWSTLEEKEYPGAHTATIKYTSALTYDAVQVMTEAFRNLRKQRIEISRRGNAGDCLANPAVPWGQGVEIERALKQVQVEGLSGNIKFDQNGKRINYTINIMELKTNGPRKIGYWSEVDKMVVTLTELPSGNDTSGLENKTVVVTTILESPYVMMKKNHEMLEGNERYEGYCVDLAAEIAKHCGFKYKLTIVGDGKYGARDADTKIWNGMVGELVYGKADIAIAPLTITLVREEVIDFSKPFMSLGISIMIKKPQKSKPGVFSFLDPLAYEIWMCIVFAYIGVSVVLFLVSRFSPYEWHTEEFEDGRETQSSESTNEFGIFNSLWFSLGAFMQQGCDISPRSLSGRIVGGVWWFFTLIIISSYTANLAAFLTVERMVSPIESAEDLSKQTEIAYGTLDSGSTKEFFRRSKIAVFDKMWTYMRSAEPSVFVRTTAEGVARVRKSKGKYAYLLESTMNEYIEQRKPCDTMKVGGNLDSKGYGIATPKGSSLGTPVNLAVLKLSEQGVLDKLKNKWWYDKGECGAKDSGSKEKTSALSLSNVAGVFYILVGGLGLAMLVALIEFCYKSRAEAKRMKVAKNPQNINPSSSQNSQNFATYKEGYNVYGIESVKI

AG56: 56-nucleotide truncated version of AG1407, RNA aptamer (GGGAGAUUGUGAAGCGUAGGCUCGAGUUUGUCCCGCGAGCCAAAGAUUCCAGACCC; RNA, backbone not given here)
inhibitory function of shorter versions of AG1407, based on A/A(I) (GluA2Qflip; GluA2Qflip): functional sequence | inhibition of the open-channel conformation (GluA2Qflip; GluA2Qflip, high glutamate concentration): selectively inhibited the open-channel | inhibition of the closed-channel conformation (GluA2Qflip; GluA2Qflip, low glutamate concentration): did not inhibit | Ki (GluA2Qflip; open-channel conformation of GluA2Qflip, 3 mM glutamate, read-out: inhibition constant): 950 ± 200 nM | A/A(I) (GluA4; 0.5 μM AG56, 3 mM glutamate, open-channel GluA4): not significantly larger than 1.0 | A/A(I) ratio (GluA4; 1 μM AG56, 3 mM glutamate, open-channel GluA4): 1.2 | inhibition of the closed-channel conformation (GluA4; GluA4): no inhibitory effect | inhibition of the open-channel conformation (GluA4; GluA4): weak | effect on NMDA receptor channel (GluN1a/2A): did not affect | inhibition of the closed-channel conformation (GluA3): no inhibitory effect | inhibition of the open-channel conformation (GluA3): similarly inhibited the open-channel conformation
